Columns and labels:
velvetleaf = test: Test A pre-/postemergence greenhouse test; type: in vivo, Abutilon theophrasti; conditions: for Velvetleaf plant response rating: 0 to 100 scale; for Plant response rating, Velvetleaf: 0 to 100 scale where 0 is no effect and 100 is complete control
Procedure, shortened: (§1)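 Pre: directed soil spray on seeded loam/sand. Post: foliar spray, plants 2–10 cm, 1–2 leaf stage, applied concurrently. Vehicle: non-phytotoxic solvent + surfactant. Greenhouse ~10 d; visual injury rating vs untreated controls.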

johnsongrass = test: Test C pre-/postemergence test; type: in vivo, Sorghum halepense; conditions: for Plant response rating (0 to 100), Johnsongrass: 250 g ai/ha
Procedure, shortened: (§2)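 Compounds in a non-phytotoxic solvent with surfactant applied preemergence to seeded pots and, at the same time, postemergence to plants 2–18 cm tall (1- to 4-leaf stage). Paddy tests: pots flooded to 3 cm, compound applied into the water, depth held throughout.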

giant foxtail [1] = test: Test A pre-/postemergence greenhouse test; type: in vivo, Setaria faberi; conditions: for Foxtail, Giant plant response rating: 0 to 100 scale; for Plant response rating, Foxtail, Giant: 0 to 100 scale where 0 is no effect and 100 is complete control
Procedure, shortened: as §1

lambsquarters = test: Test C pre-/postemergence test; type: in vivo, Chenopodium album
Procedure, shortened: as §2

catchweed bedstraw = test: Test C pre-/postemergence test; type: in vivo, Galium aparine; conditions: for Plant response rating (0 to 100), Galium: 250 g ai/ha
Procedure, shortened: as §2

giant foxtail [2] = test: Test C pre-/postemergence test; type: in vivo, Setaria faberii; conditions: for Plant response rating (0 to 100), Foxtail, Giant: 250 g ai/ha
Procedure, shortened: as §2

pigweed = test: Test C pre-/postemergence test; type: in vivo, Amaranthus retroflexus
Procedure, shortened: as §2

wheat = test: Test A pre-/postemergence greenhouse test; type: in vivo, Triticum aestivum; conditions: for Wheat plant response rating: 0 to 100 scale; for Plant response rating, Wheat: 0 to 100 scale where 0 is no effect and 100 is complete control
Procedure, shortened: as §1

soybean = test: Test C pre-/postemergence test; type: in vivo, Glycine max
Procedure, shortened: as §2

rice = test: Test C flooded paddy test; type: in vivo, Oryza sativa; conditions: Flood
Procedure, shortened: (§3)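 Test compounds are applied straight into paddy water held 3 cm above the soil surface, with that flood maintained for the whole test. After 13 to 15 days in the greenhouse, each species is scored visually relative to controls.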

barnyardgrass = test: Test C flooded paddy test; type: in vivo, Echinochloa crus-galli; conditions: Flood
Procedure, shortened: as §3

downy brome = test: Test C pre-/postemergence test; type: in vivo, Bromus tectorum; conditions: for Plant response rating (0 to 100), Bromegrass, Downy: 250 g ai/ha
Procedure, shortened: as §2

corn = test: Test A pre-/postemergence greenhouse test; type: in vivo, Zea mays; conditions: for Corn plant response rating: 0 to 100 scale; for Plant response rating, Corn: 0 to 100 scale where 0 is no effect and 100 is complete control
Procedure, shortened: as §1

crabgrass = test: Test C pre-/postemergence test; type: in vivo, Digitaria sanguinalis; conditions: for Plant response rating (0 to 100), Crabgrass, Large: 250 g ai/ha
Procedure, shortened: as §2

bermudagrass = test: Test C pre-/postemergence test; type: in vivo, Cynodon dactylon; conditions: for Plant response rating (0 to 100), Bermudagrass: 250 g ai/ha
Procedure, shortened: as §2

morningglory = test: Test C pre-/postemergence test; type: in vivo, Ipomoea coccinea
Procedure, shortened: as §2

Surinam grass = test: Test C pre-/postemergence test; type: in vivo, Brachiaria decumbens
Procedure, shortened: as §2

[3] = Postemergence, 125 g ai/ha, 0 is no effect, 100 is complete control
[4] = Postemergence, 500 g ai/ha, 0 is no effect, 100 is complete control
[5] = Preemergence, 125 g ai/ha, 0 no effect, 100 complete control
[6] = 31 g ai/ha, Preemergence, scale 0 to 100
[7] = 62 g ai/ha, preemergence, scale 0 (no effect) to 100 (complete control)
[8] = preemergence, 125 g ai/ha, scale 0 (no effect) to 100 (complete control)
[9] = 31 g ai/ha, scale 0 to 100 (0 no effect, 100 complete control)
[10] = 62 g ai/ha, scale 0 to 100, 0 no effect, 100 complete control, 13 to 15 days
[11] = 125 g ai/ha, scale 0 to 100, 0 no effect, 100 complete control, 13 to 15 days
[12] = 250 g ai/ha, scale 0 to 100 (0 no effect, 100 complete control)
[13] = 62 g ai/ha, Preemergence, scale 0 to 100
[14] = Preemergence, 31 g ai/ha, scale 0 to 100 (0 no effect, 100 complete control)

## Cn1nc(C(F)(F)F)c(C[S+]([O-])c2ccc(Br)c[n+]2[O-])c1OC(F)F (racemic) [Compound 16]
velvetleaf; [3]
  Velvetleaf plant response rating: 50
velvetleaf; [4]
  Velvetleaf plant response rating: 90
velvetleaf; [5]
  Velvetleaf plant response rating: 80
velvetleaf; Preemergence, 500 g ai/ha
  Plant response rating, Velvetleaf: 100
johnsongrass; [6]
  Johnsongrass plant response rating: 100
johnsongrass; [7]
  Johnsongrass plant response rating: 100
johnsongrass; Preemergence
  Plant response rating (0 to 100), Johnsongrass: 100
johnsongrass; [8]
  Johnsongrass plant response rating: 100
Giant foxtail [1]; [3]
  Foxtail, Giant plant response rating: 80
Giant foxtail [1]; [4]
  Foxtail, Giant plant response rating: 90
Giant foxtail [1]; [5]
  Foxtail, Giant plant response rating: 100
Giant foxtail [1]; Preemergence, 500 g ai/ha
  Plant response rating, Foxtail, Giant: 100
lambsquarters; [6]
  Lambsquarters plant response rating: 80
lambsquarters; [7]
  Lambsquarters plant response rating: 90
lambsquarters; Preemergence, 250 g ai/ha
  Plant response rating (0 to 100), Lambsquarters: 100
lambsquarters; [8]
  Lambsquarters plant response rating: 100
Catchweed bedstraw; [6]
  Galium plant response rating: 0
Catchweed bedstraw; [7]
  Galium plant response rating: 100
Catchweed bedstraw; Preemergence
  Plant response rating (0 to 100), Galium: 100
Catchweed bedstraw; [8]
  Galium plant response rating: 100
Giant foxtail [2]; [6]
  Foxtail, Giant plant response rating: 80
Giant foxtail [2]; [7]
  Foxtail, Giant plant response rating: 100
Giant foxtail [2]; Preemergence
  Plant response rating (0 to 100), Foxtail, Giant: 100
pigweed; [6]
  Pigweed plant response rating: 100
pigweed; [7]
  Pigweed plant response rating: 100
pigweed; Preemergence, 250 g ai/ha
  Plant response rating (0 to 100), Pigweed: 100
pigweed; [8]
  Pigweed plant response rating: 100
wheat; [3]
  Wheat plant response rating: 60
wheat; [4]
  Wheat plant response rating: 70
wheat; [5]
  Wheat plant response rating: 60
wheat; Preemergence, 500 g ai/ha
  Plant response rating, Wheat: 80
soybean; [6]
  Soybean plant response rating: 0
soybean; [7]
  Soybean plant response rating: 30
soybean; Preemergence, 250 g ai/ha
  Plant response rating (0 to 100), Soybean: 80
soybean; [8]
  Soybean plant response rating: 60
rice; [9]
  Plant response rating, Rice: 0
rice; [10]
  Plant response rating, Rice: 0
rice; [11]
  Plant response rating, Rice: 0
rice; [12]
  Plant response rating, Rice: 0
barnyardgrass; [9]
  Plant response rating, Barnyardgrass: 0
barnyardgrass; [10]
  Plant response rating, Barnyardgrass: 0
barnyardgrass; [11]
  Plant response rating, Barnyardgrass: 0
barnyardgrass; [12]
  Plant response rating, Barnyardgrass: 0
Downy brome; [6]
  Bromegrass, Downy plant response rating: 20
Downy brome; [7]
  Bromegrass, Downy plant response rating: 50
Downy brome; Preemergence
  Plant response rating (0 to 100), Bromegrass, Downy: 60
Downy brome; [8]
  Bromegrass, Downy plant response rating: 55
corn; [3]
  Corn plant response rating: 50
corn; [4]
  Corn plant response rating: 60
corn; [5]
  Corn plant response rating: 0
corn; Preemergence, 500 g ai/ha
  Plant response rating, Corn: 60
crabgrass; [6]
  Crabgrass, Large plant response rating: 80
crabgrass; [7]
  Crabgrass, Large plant response rating: 98
crabgrass; Preemergence
  Plant response rating (0 to 100), Crabgrass, Large: 100
crabgrass; [8]
  Crabgrass, Large plant response rating: 100
bermudagrass; [6]
  Bermudagrass plant response rating: 80
bermudagrass; [7]
  Bermudagrass plant response rating: 98
bermudagrass; Preemergence
  Plant response rating (0 to 100), Bermudagrass: 100
bermudagrass; [8]
  Bermudagrass plant response rating: 100
morningglory; [6]
  Morningglory plant response rating: 0
morningglory; [7]
  Morningglory plant response rating: 10
morningglory; Preemergence, 250 g ai/ha
  Plant response rating (0 to 100), Morningglory: 100
morningglory; [8]
  Morningglory plant response rating: 95
Surinam grass; [7]
  Surinam Grass plant response rating: 55
Surinam grass; Preemergence, 250 g ai/ha
  Plant response rating (0 to 100), Surinam Grass: 100
Surinam grass; [8]
  Surinam Grass plant response rating: 100

## Cn1nc(C(F)(F)F)c(C[S+]([O-])c2cccc[n+]2[O-])c1OCC(F)(F)F (racemic) [Compound 28]
velvetleaf; [3]
  Velvetleaf plant response rating: 70
velvetleaf; [4]
  Velvetleaf plant response rating: 80
velvetleaf; [5]
  Velvetleaf plant response rating: 80
velvetleaf; Preemergence, 500 g ai/ha
  Plant response rating, Velvetleaf: 100
johnsongrass; [13]
  Johnsongrass plant response rating: 100
johnsongrass; [14]
  Plant response rating, Johnsongrass: 85
johnsongrass; Preemergence
  Plant response rating (0 to 100), Johnsongrass: 100
Giant foxtail [1]; [3]
  Foxtail, Giant plant response rating: 90
Giant foxtail [1]; [4]
  Foxtail, Giant plant response rating: 90
Giant foxtail [1]; [5]
  Foxtail, Giant plant response rating: 100
Giant foxtail [1]; Preemergence, 500 g ai/ha
  Plant response rating, Foxtail, Giant: 100
lambsquarters; [13]
  Lambsquarters plant response rating: 100
lambsquarters; [14]
  Plant response rating, Lambsquarters: 100
Catchweed bedstraw; [13]
  Galium plant response rating: 100
Catchweed bedstraw; [14]
  Plant response rating, Galium: 100
Catchweed bedstraw; Preemergence
  Plant response rating (0 to 100), Galium: 100
Giant foxtail [2]; [13]
  Foxtail, Giant plant response rating: 100
Giant foxtail [2]; [14]
  Plant response rating, Foxtail, Giant: 95
Giant foxtail [2]; Preemergence
  Plant response rating (0 to 100), Foxtail, Giant: 100
pigweed; [13]
  Pigweed plant response rating: 100
pigweed; [14]
  Plant response rating, Pigweed: 100
wheat; [3]
  Wheat plant response rating: 60
wheat; [4]
  Wheat plant response rating: 70
wheat; [5]
  Wheat plant response rating: 70
wheat; Preemergence, 500 g ai/ha
  Plant response rating, Wheat: 100
soybean; [13]
  Soybean plant response rating: 95
rice; [9]
  Plant response rating, Rice: 0
rice; [10]
  Plant response rating, Rice: 25
rice; [11]
  Plant response rating, Rice: 65
rice; [12]
  Plant response rating, Rice: 80
barnyardgrass; [9]
  Plant response rating, Barnyardgrass: 0
barnyardgrass; [10]
  Plant response rating, Barnyardgrass: 20
barnyardgrass; [11]
  Plant response rating, Barnyardgrass: 65
barnyardgrass; [12]
  Plant response rating, Barnyardgrass: 85
Downy brome; [13]
  Bromegrass, Downy plant response rating: 40
Downy brome; [14]
  Plant response rating, Bromegrass, Downy: 0
Downy brome; Preemergence
  Plant response rating (0 to 100), Bromegrass, Downy: 100
Downy brome; [8]
  Bromegrass, Downy plant response rating: 50
corn; [3]
  Corn plant response rating: 60
corn; [4]
  Corn plant response rating: 70
corn; [5]
  Corn plant response rating: 0
corn; Preemergence, 500 g ai/ha
  Plant response rating, Corn: 80
crabgrass; [13]
  Crabgrass, Large plant response rating: 100
crabgrass; [14]
  Plant response rating, Crabgrass, Large: 100
crabgrass; Preemergence
  Plant response rating (0 to 100), Crabgrass, Large: 100
bermudagrass; 62 g ai/ha, Preemergence, scale 0 to 100 (0 no effect, 100 complete control)
  Bermudagrass plant response rating: 100
bermudagrass; [14]
  Plant response rating, Bermudagrass: 100
bermudagrass; Preemergence
  Plant response rating (0 to 100), Bermudagrass: 100
bermudagrass; [8]
  Bermudagrass plant response rating: 100
morningglory; [13]
  Morningglory plant response rating: 100
morningglory; [14]
  Plant response rating, Morningglory: 40
Surinam grass; [13]
  Surinam Grass plant response rating: 100
Surinam grass; [14]
  Plant response rating, Surinam Grass: 85
